Experimental data reported in the NIST ThermoML archive (doi:10.1021/je049671t).

Experiment: xn = mol fraction of the nth substance listed
Conditions: Liquid, Vibrating tube method

CC(C)C [2-methylpropane] + CCC
Conditions	mass density [kg/m3]
300 K, 4958.9 kPa, x2 = 0.499	533.34
300 K, 4994.5 kPa, x2 = 0.75	518.46
300 K, 5016.4 kPa, x2 = 0.25	547.38
300 K, 5458.6 kPa, x2 = 0.499	534.46
300 K, 5458.9 kPa, x2 = 0.75	519.57
300 K, 5511.8 kPa, x2 = 0.25	548.38
300 K, 5960.9 kPa, x2 = 0.75	520.74
300 K, 5975.7 kPa, x2 = 0.499	535.56
300 K, 6025.1 kPa, x2 = 0.25	549.47
300 K, 6473 kPa, x2 = 0.75	521.92
300 K, 6516 kPa, x2 = 0.25	550.41
300 K, 6517.3 kPa, x2 = 0.499	536.72
300 K, 6954.6 kPa, x2 = 0.75	522.99
300 K, 6957 kPa, x2 = 0.25	551.23
300 K, 6984.7 kPa, x2 = 0.499	537.69
320 K, 1020.5 kPa, x2 = 0.25	509.69
320 K, 1325.3 kPa, x2 = 0.75	475.52
320 K, 1461.2 kPa, x2 = 0.499	494.61
320 K, 1500 kPa, x2 = 0.25	511.28
320 K, 1505.3 kPa, x2 = 0.75	476.31
320 K, 2021.1 kPa, x2 = 0.75	478.51
320 K, 2023.3 kPa, x2 = 0.25	512.94
320 K, 2041.5 kPa, x2 = 0.499	496.75
320 K, 2488.7 kPa, x2 = 0.499	498.31
320 K, 2517.7 kPa, x2 = 0.75	480.54
320 K, 2522.2 kPa, x2 = 0.25	514.49
320 K, 3007.6 kPa, x2 = 0.25	515.95
320 K, 3023.9 kPa, x2 = 0.499	500.12
320 K, 3025.6 kPa, x2 = 0.75	482.53
320 K, 3506.4 kPa, x2 = 0.75	484.35
320 K, 3508.1 kPa, x2 = 0.25	517.4
320 K, 3550 kPa, x2 = 0.499	501.84
320 K, 3994.2 kPa, x2 = 0.75	486.12
320 K, 4022.9 kPa, x2 = 0.25	518.87
320 K, 4037.4 kPa, x2 = 0.499	503.38
320 K, 4507.7 kPa, x2 = 0.75	487.92
320 K, 4522.1 kPa, x2 = 0.25	520.26
320 K, 4530.4 kPa, x2 = 0.499	504.9
320 K, 4954.2 kPa, x2 = 0.499	506.17
320 K, 4968 kPa, x2 = 0.75	489.5
320 K, 4990.1 kPa, x2 = 0.25	521.53
320 K, 5517.3 kPa, x2 = 0.25	522.93
320 K, 5527.2 kPa, x2 = 0.75	491.33
320 K, 5545.8 kPa, x2 = 0.499	507.9
320 K, 5997.3 kPa, x2 = 0.499	509.24
320 K, 6001.8 kPa, x2 = 0.25	524.19
320 K, 6003.6 kPa, x2 = 0.75	492.85
320 K, 6479.8 kPa, x2 = 0.25	525.39
320 K, 6495 kPa, x2 = 0.75	494.38
320 K, 6524.9 kPa, x2 = 0.499	510.74
320 K, 6930.3 kPa, x2 = 0.499	511.85
320 K, 6964.1 kPa, x2 = 0.25	526.6
320 K, 7044.7 kPa, x2 = 0.75	496.03
340 K, 1514.2 kPa, x2 = 0.25	479.11
340 K, 2002.6 kPa, x2 = 0.499	459.37
340 K, 2028 kPa, x2 = 0.25	481.6
340 K, 2456 kPa, x2 = 0.499	461.99
340 K, 2489.8 kPa, x2 = 0.75	441.74
340 K, 2523.8 kPa, x2 = 0.25	483.92
340 K, 2981.6 kPa, x2 = 0.499	464.85
340 K, 3027.2 kPa, x2 = 0.25	486.13
340 K, 3027.4 kPa, x2 = 0.75	445.39
340 K, 3485.7 kPa, x2 = 0.499	467.47
340 K, 3510.1 kPa, x2 = 0.75	448.46
340 K, 3532.9 kPa, x2 = 0.25	488.26
340 K, 3969 kPa, x2 = 0.75	451.17
340 K, 4012.5 kPa, x2 = 0.499	470.04
340 K, 4015.7 kPa, x2 = 0.25	490.21
340 K, 4498.6 kPa, x2 = 0.75	454.09
340 K, 4503 kPa, x2 = 0.25	492.08
340 K, 4508.4 kPa, x2 = 0.499	472.34
340 K, 4963.1 kPa, x2 = 0.75	456.51
340 K, 4964.9 kPa, x2 = 0.25	493.81
340 K, 4990.6 kPa, x2 = 0.499	474.5
340 K, 5450.5 kPa, x2 = 0.499	476.5
340 K, 5511.1 kPa, x2 = 0.75	459.22
340 K, 5522.3 kPa, x2 = 0.25	495.84
340 K, 5960.4 kPa, x2 = 0.75	461.33
340 K, 5982 kPa, x2 = 0.499	478.68
340 K, 6022.3 kPa, x2 = 0.25	497.59
340 K, 6506.1 kPa, x2 = 0.75	463.79
340 K, 6513 kPa, x2 = 0.499	480.75
340 K, 6527.5 kPa, x2 = 0.25	499.31
340 K, 6963 kPa, x2 = 0.25	500.75
340 K, 7045.5 kPa, x2 = 0.499	482.76
340 K, 7081.1 kPa, x2 = 0.75	466.25
360 K, 2023.3 kPa, x2 = 0.25	441.34
360 K, 2495.4 kPa, x2 = 0.499	418.03
360 K, 2532.9 kPa, x2 = 0.25	445.56
360 K, 2996.3 kPa, x2 = 0.499	423.54
360 K, 3022.3 kPa, x2 = 0.25	449.26
360 K, 3496.3 kPa, x2 = 0.499	428.34
360 K, 3518.2 kPa, x2 = 0.75	399.53
360 K, 3519.8 kPa, x2 = 0.25	452.71
360 K, 3960 kPa, x2 = 0.75	405.21
360 K, 3971.4 kPa, x2 = 0.75	405.35
360 K, 3988.8 kPa, x2 = 0.499	432.58
360 K, 4022.3 kPa, x2 = 0.25	455.95
360 K, 4484.8 kPa, x2 = 0.75	411.08
360 K, 4488.6 kPa, x2 = 0.499	436.48
360 K, 4520.2 kPa, x2 = 0.25	458.95
360 K, 4923.7 kPa, x2 = 0.75	415.42
360 K, 4983.9 kPa, x2 = 0.25	461.58
360 K, 5000.3 kPa, x2 = 0.499	440.17
360 K, 5436.6 kPa, x2 = 0.499	443.06
360 K, 5456.3 kPa, x2 = 0.75	420.47
360 K, 5515.2 kPa, x2 = 0.25	464.45
360 K, 5932 kPa, x2 = 0.75	424.33
360 K, 5982.9 kPa, x2 = 0.25	466.86
360 K, 5992.3 kPa, x2 = 0.499	446.54
360 K, 6444.6 kPa, x2 = 0.25	469.09
360 K, 6487.4 kPa, x2 = 0.499	449.41
360 K, 6509.8 kPa, x2 = 0.75	428.41
360 K, 6932.1 kPa, x2 = 0.75	431.05
360 K, 6956.4 kPa, x2 = 0.25	471.48
360 K, 6977 kPa, x2 = 0.499	452.14
380 K, 2977.2 kPa, x2 = 0.25	394.6
380 K, 3495.5 kPa, x2 = 0.25	403.43
380 K, 3540.7 kPa, x2 = 0.499	358.66
380 K, 3969.5 kPa, x2 = 0.25	409.99
380 K, 4047.9 kPa, x2 = 0.499	373.76
380 K, 4453.9 kPa, x2 = 0.25	415.7
380 K, 4501.9 kPa, x2 = 0.499	383.09
380 K, 5016 kPa, x2 = 0.499	391.43
380 K, 5019.6 kPa, x2 = 0.25	421.52
380 K, 5488.5 kPa, x2 = 0.25	425.84
380 K, 5506.7 kPa, x2 = 0.499	398.06
380 K, 5943.1 kPa, x2 = 0.499	403.16
380 K, 5972.1 kPa, x2 = 0.25	429.89
380 K, 6422.5 kPa, x2 = 0.499	408.17
380 K, 6471.8 kPa, x2 = 0.25	433.74
380 K, 6885.8 kPa, x2 = 0.499	412.58
380 K, 7060.8 kPa, x2 = 0.25	437.93

mass density [kg/m3]
Conditions	300 K	320 K	340 K	360 K	380 K
x2 = 0.25	537.31	509.12	478.17	440.78	390.71
x2 = 0.499	522.96	491.75	457.03	416.83	346.9
x2 = 0.75	507.33	475.51	436.07	388.35	–
